Test results as given in US6869912B2, “Biocidal composition” (priority 2000, dated 2005).

What was measured:
[1] = Particle size analysis using a Hiac/Royco 8000A Laser Extinction Counter; type: physicochemical; conditions: particles formed in Example 1
Excerpt: Particle size analysis, using a Hiac/Royco […] Laser Extinction Counter of a typical batch of the biocidal preparation gave;

[2] = Settling of copper (II) oxalate particles through water in a measuring cylinder; type: physicochemical; conditions: majority of particles, distributed on the surface of a measuring cylinder
Protocol: A portion of a biocidal composition prepared as described above was distributed on the surface of a measuring cylinder. […] After standing for approximately four hours, samples were taken by pipette from various portions of the water body. The concentration of copper (II) ions in the water body was measured, by way of atomic absorption spectrophotometry, at between 5 and 8 parts per million.

plants and animals = conditions: cited from earlier work

Row | SMILES | Predominant particle size [1] | Settling rate of particles [2] | Concentration not toxic to almost all plants and animals (plants and animals; over extended periods of time) | Level tolerated by most plants and animals (plants and animals; over relatively short periods of time) [parts per million]
1 | O=C([O-])C(=O)[O-].[Cu+2] [copper (II) oxalate] | below 10 μm | 2-5 metres per hour | – | –
2 | [Cu+2] [copper (II) ions] | – | – | up to 2 parts per million | 10
